Earlier results on 2 compounds are cited in US7087648B1, “Methods for modulating macrophage proliferation using polyamine analogs” (The Regents of the University of California, priority 1997, dated 2006).

Data set [1] deals with rat aortic smooth muscle cells. As to conditions: in culture for 8 to 15 days; cited from earlier work.
The target of data set [2] is T1, S-adenosylmethionine decarboxylase (Homo sapiens, UniProt P17707).
T1 sequence (P17707 68-334 limits assumed): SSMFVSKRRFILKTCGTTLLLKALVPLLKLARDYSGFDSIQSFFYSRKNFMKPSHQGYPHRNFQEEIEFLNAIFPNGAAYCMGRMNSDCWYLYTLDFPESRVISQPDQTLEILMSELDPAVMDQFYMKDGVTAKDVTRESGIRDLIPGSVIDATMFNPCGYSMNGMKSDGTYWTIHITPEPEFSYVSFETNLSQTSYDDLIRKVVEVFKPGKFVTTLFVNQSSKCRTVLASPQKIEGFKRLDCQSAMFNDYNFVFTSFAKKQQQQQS
T1 sequence (P17707 1-67 limits assumed): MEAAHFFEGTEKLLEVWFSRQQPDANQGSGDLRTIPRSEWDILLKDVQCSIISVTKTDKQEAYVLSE
As to conditions: competing with S-adenosylmethionine; cited from earlier work.

Another data set concerns the target T2, spermine synthase (Homo sapiens, UniProt P52788).
T2 sequence (P52788 1-366): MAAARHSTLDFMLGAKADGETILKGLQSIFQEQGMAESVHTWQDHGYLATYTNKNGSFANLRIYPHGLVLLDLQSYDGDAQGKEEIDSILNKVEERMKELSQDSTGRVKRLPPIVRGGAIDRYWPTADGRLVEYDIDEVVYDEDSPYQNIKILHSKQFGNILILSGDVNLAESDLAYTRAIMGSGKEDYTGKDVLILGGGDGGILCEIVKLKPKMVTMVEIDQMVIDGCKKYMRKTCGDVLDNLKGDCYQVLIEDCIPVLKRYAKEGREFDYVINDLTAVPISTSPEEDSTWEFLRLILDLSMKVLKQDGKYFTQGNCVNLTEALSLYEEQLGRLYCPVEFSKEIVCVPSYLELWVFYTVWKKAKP
To be noted: competing with spermidine; cited from earlier work.

The next data set has as its system spermine synthetase. To be noted: competing with putrescine; cited from earlier work.
The next data set has as its system leukemic ascites cells. As to conditions: cited from earlier work.
The subject of the next data set is P388 leukemia. To be noted: mice bearing P388 leukemia; cited from earlier work.

Structures are written as SMILES.

`CCNCCCNCCCNCCCNCC` [Bis-ethyl norspermine, 1,11 -bis(ethyl)norspermine]: in data set [1], the cell growth entry is recorded as “inhibit the growth”.

Consider `CC(C=NNC(=N)NC1CCCC1)=NNC(=N)NC1CCCC1` [MGBCP, methylglyoxal-bis(cyclopentylamidinohydrazone)], for which the “inhibition of S-adenosylmethionine decarboxylase” value in data set [2] is recorded as “inhibited”. Moreover, the “inhibition of spermine synthase” value at spermine synthase was “inhibited”. Also, in the data set with spermine synthetase, the “inhibition of spermine synthetase” value is “inhibited”. In addition, in the data set with leukemic ascites cells, the “spermidine and spermine in cells” value was “depleted”. For the same compound, the survival time result in the data set with P388 leukemia is on record as “prolonged survival time”.
